Assays:
[1] = system: IFN; test: Cytokine Induction in Human Cells: interferon (IFN) secreted by PBMCs, A549/encephalomyocarditis bioassay; type: cell-based; conditions: 18 to 24 hours; further: call rule not given here
Summary of the method: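 Human PBMCs from healthy donors at 1.5-2×10^6 cells/mL in RPMI with 10% FBS, exposed to compounds (typically 0.1 to 100 μM, ≤1% DMSO) for 18 to 24 h at 37° C. Secreted IFN measured by A549/encephalomyocarditis virus cytopathic-effect bioassay, in alpha reference units/mL against NIH human leukocyte IFN standard.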

[2] = system: TNF; test: Cytokine Induction in Human Cells: tumor necrosis factor (TNF) secreted by PBMCs, ELISA; type: cell-based; conditions: 18 to 24 hours; further: call rule not given here
Summary of the method: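 Human donor PBMCs at 1.5-2×10^6 cells/mL in RPMI with 10% FBS were exposed to compound, generally at 0.1 to 100 μM (≤1% DMSO final), for 18 to 24 h at 37 °C. Secreted TNF in supernatant was measured by ELISA and reported as pg/mL.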

[3] = system: interferon α; test: Interferon (α) Induction in Human Cells (PBM's, 48 hours, A549 bioassay); type: cell-based; design: key: +: indicates that the compound induced interferon α at that particular concentration; −: indicates that the compound did not induce interferon α at that particular concentration; ±: indicates that the results were equivocal at that particular concentration; conditions: 48 hours incubation
Experimental: An in vitro human blood cell system was used to assess interferon induction by compounds of the invention. Activity is based on the measurement of interferon secreted into culture media. Interferon is measured by bioassay.
Whole blood was collected by venipuncture into EDTA vacutainer tubes. Peripheral blood mononuclear cells (PBM's) were separated from whole blood by using either LeucoPREP™ Brand Cell Separation Tubes (available from Becton Dickinson) or Ficoll-Paque® solution (available from Pharmacia LKB Biotechnology Inc, Piscataway, N.J.). The PBM's were suspended at 1×10^6/mL in RPMI 1640 media (available from GIBCO, Grand Island, N.Y.) containing 25 mM HEPES (N-2-hydroxyethylpiperazine-N′-2-ethanesulfonic acid) and L-glutamine (1% penicillin-streptomycin solution added) with 10% heat inactivated (56° C. for 30 minutes) autologous serum added. 200 μL portions of PBM suspension were added to 96 well (flat bottom) MicroTest III sterile tissue culture plates.
The compounds were solubilized in ethanol, dimethyl sulfoxide or tissue culture water then diluted with tissue culture water, 0.01N sodium hydroxide or 0.01N hydrochloric acid (The choice of solvent will depend on the chemical characteristics of the compound being tested.). Ethanol or DMSO concentration should not exceed a final concentration of 1% for addition to the culture wells. Compounds were initially tested in a concentration range of from about 0.1 μg/mL to about 5 μg/mL. Compounds which show induction at a concentration of 0.5 μg/mL were then tested in a wider concentration range.
The solution of test compound was added in a volume (less than or equal to 50 μL) to the wells containing 200 μL of diluted whole blood or of PBM's in media. Solvent and/or media was added to control wells (wells with no test compound) and as needed to adjust the final volume of each well to 250 μL. The plates were covered with plastic lids, vortexed gently and then incubated for 48 hours at 37° C. with a 5% carbon dioxide atmosphere.
Following incubation, the plates were covered with parafilm and then centrifuged at 1000 rpm for 10 to 15 minutes at 4° C. in a Damon IEC Model CRU-5000 centrifuge. Media (about 200 μL) was removed from 4 to 8 wells and pooled into 2 mL sterile freezing vials. Samples were maintained at −70° C. until analysis.
Interferon was determined by bioassay using A549 human lung carcinoma cells challenged with encephalomyocarditis. The details of the bioassay method have been described by G. L. Brennan and L. H. Kronenberg in “Automated Bioassay of Interferons in Micro-test Plates”, Biotechniques, June/July 78, 1983, incorporated herein by reference. Briefly stated the method is as follows: interferon dilutions and A549 cells are incubated at 37° C. for 12 to 24 hours. The incubated cells are infected with an inoculum of encephalomyocarditis virus. The infected cells are incubated for an additional period at 37° C. before quantifying for viral cytopathic effect. The viral cytopathic effect is quantified by staining followed by spectrophotometric absorbance measurements. Results are expressed as alpha reference units/mL based on the value obtained for NIH HU IF-L standard. The interferon was identified as essentially all interferon alpha by testing in checkerboard neutralization assays against rabbit anti-human interferon (beta) and goat anti-human interferon (alpha) using A549 cell monolayers challenged with encephalomyocarditis virus.

melting point: 228 to 230 °C
Structure (SMILES): Cc1nc2c(N)nc3cccnc3c2n1CC(C)C [Example 36, 2-Methyl-1-(2-methylpropyl)-1H-imidazo[4,5-c][1,5]naphthyridin-4-amine]
IFN induction ([1]; Dose Concentration 1.0 μM): +
IFN induction ([1]; Dose Concentration 10.0 μM): +
IFN induction ([1]; Dose Concentration 100.0 μM): +
TNF induction ([2]; Dose Concentration 1.0 μM): −
TNF induction ([2]; Dose Concentration 10.0 μM): +
TNF induction ([2]; Dose Concentration 100.0 μM): −
Interferon (α) Induction in Human Cells ([3]; Dose Concentration 0.01 μg/mL): −
Interferon (α) Induction in Human Cells ([3]; Dose Concentration 0.05 μg/mL): +
Interferon (α) Induction in Human Cells ([3]; Dose Concentration 0.10 μg/mL): +
Interferon (α) Induction in Human Cells ([3]; Dose Concentration 0.50 μg/mL): +
Interferon (α) Induction in Human Cells ([3]; Dose Concentration 1.0 μg/mL): +
Interferon (α) Induction in Human Cells ([3]; Dose Concentration 5.0 μg/mL): +
Interferon (α) Induction in Human Cells ([3]; Dose Concentration 10.0 μg/mL): +
Interferon (α) Induction in Human Cells ([3]; Dose Concentration 25.0 μg/mL): +
Interferon (α) Induction in Human Cells ([3]; Dose Concentration 50.0 μg/mL): +

— US7678918B2, “Intermediates for imidazonaphthyridines” (3M Innovative Properties Company, priority 1997, dated 2010)
